Reference: US12691069B2, “Synthetic glycolipids and glycoliposome compositions : suitable for cargo delivery to the central nervous system” (KORANEX CAPITAL, priority 2022, dated 2026)
Marks after values point to notes of the source that are not given here.

What was measured:
[1] = Dynamic light scattering (DLS) of MGs; format: physicochemical; conditions: At 3.2 mg/mL THF; for Diameter (nm): injected in nanopure water
Method: The self-assembly of the glycoliposomes into vesicles and liposomes involved the injection method of their solution in a water miscible solvent such as ethanol or tetrahydrofuran (THF) into water or buffer. […] The resulting assemblies were first analyzed by dynamic light scattering (DLS) for size, polydispersity (PDI), and stability in time. For liposome size determination, solutions of the glycolipids (3.5 mg) in THF (1.1 mL) were then diluted in distilled water (2.2 mL) to provide final concentrations of 1.06 mg/mL. Particle size distributions were measured in water using a Zetasizer® Nano S90 from Malvern Instruments (UK) equipped with 4 mW He—Ne laser 633 nm and avalanche photodiode positioned at 90° to the beam and temperature-controlled cuvette holder. Instrument parameters were determined automatically along with measurement times. Experiments were performed in triplicate at 25° C.
Different solutions of 12a (C8), 12c (C12), 12d (C14), 12e (C16), 22c (C12), 22d (C14), 22e (C16) in THF and EtOH were prepared from 0.5 mg/mL to 10 mg/mL. 100 μL of these preparations were injected in a constant 2 mL of nanopure water followed by 5 seconds of vortexing, and analyzed by DLS, to determine the diameter size of the MGs, as shown in Table 2.

[2] = In vivo Dynantin distribution after intranasal treatment; conditions: intranasal Dynantin 2 μg, 20 minutes
HeLa cells = assay: Nile Red cellular uptake, HeLa; format: cell-based, human
Method: Murine dendritic cells JAWSII (ATCC® CRL-11904™) were grown in RPMI-1640 medium (HyClone, Logan UT) supplemented with 8% FBS (Gibco, Grand Island NY), 100 units/ml penicillin/streptomycin (HyClone, Logan UT) and 5 ng/mL of GM-CSF (Invitrogen, Frederick MD) at 37° C. and 5% CO2. Once confluent, cells were collected using 0.25% Trypsin-EDTA (Gibco, Grand Island NY). Murine macrophage cells J774A.1 (ATCC® TIB-67™) and human malignant cells HeLa (ATCC® CCL-2™; Cederlane, Burlington, ON, Canada) were grown […] (DMEM) high glucose (HyClone, Logan, UT) supplemented with 10% FBS and 100 units/ml penicillin/streptomycin at 37° C. and 5% CO2. Once confluent, cells were collected using a cell scraper. Viability was assessed prior to experiments by Trypan Blue (Gibco, Grand Island NY) exclusion where the viability was >90%. Cells were seeded at 3×10^5 cells in 300 μL in a 96 multi-well plate and left untreated or were treated with 10 μg/mL of empty liposomes MG12d or MGC12, 1 μg/mL of Nile Red (Sigma, St-Louis MO), or 1 μg/mL of Nile Red encapsulated in 10 μg/mL of MG12d or MGC12. […] Mean fluorescence intensity was analysed using the Cytomics FC-500 flow cytometer (Beckman Coulter, Fullerton CA) using the FL3 channel where […] were measured. Data was analyzed using the CXP Analysis Software. […]

Row | Compound | Polydispersity Index (PDI) [1] | Diameter (nm) [1] | also measured
1 | 6-bis(tetradecyloxy)benzamido-N-hexyl α-D-mannopyranoside [12d] | 0.040 | 286 ^a nm | 
2 | CCCCCCCCOc1ccc(C(=O)NCCCCCCO[C@H]2O[C@H](CO)[C@@H](O)[C@H](O)[C@@H]2O)cc1OCCCCCCCC [12a, 6-Bis(octacyloxy)benzamido-N-hexyl α-D-mannopyranoside] | 0.178 | 300^a nm | 
3 | CCCCCCCCCCCCOc1ccc(C(=O)NCCCCCCO[C@H]2O[C@H](CO)[C@@H](O)[C@H](O)[C@@H]2O)cc1OCCCCCCCCCCCC [12c, 6-Bis(dodecyloxy)benzamido-N-hexyl α-D-mannopyranoside] | 0.202 | 267 ^a nm | 
4 | CC[C@H](C)[C@H](NC(=O)[C@H](CCCN=C(N)N)NC(=O)[C@H](CCCN=C(N)N)NC(=O)[C@H](CC(C)C)NC(=O)[C@H](Cc1ccccc1)NC(=O)CNC(=O)CNC(=O)[C@@H](C)Cc1c(C)cc(O)cc1C)C(=O)N[C@@H](CCCN=C(N)N)C(=O)N1CCC[C@H]1C(=O)N[C@@H](CCCCN)C(N)=O [Dynantin] |  |  | Brain (%), percentage of total dose recovered ([2]; brain): 8.15 ± 3.06%; Dynantin levels in the brain ([2]; brain): detectable levels; Lung (%), percentage of total dose recovered ([2]; lung): 4.93 ± 0.89%; Sera (%), percentage of total dose recovered ([2]; sera): 21.66 ± 3.99%
5 | CCN(CC)c1ccc2nc3c4ccccc4c(=O)cc-3oc2c1 [Nile Red] |  |  | Nile Red uptake / staining (HeLa cells): no staining
